{"source": "patent US20060029548A1", "about": "“Methods of diagnosing, monitoring and treating pulmonary diseases” (priority 2004, published 2006)", "assay_type_in_all_cases": "in vivo", "key": {"[1]": {"system": "human subjects (airway responsiveness, FEV1)", "test": "Inhalation challenge test: airway responsiveness measured as change in FEV1 (PD20)", "details": "for PD20 geometric mean: non-responders excluded; for PD20: individual subjects", "excerpt": "(§1) The clinical study described in Examples 2-4 was randomized, double blind, crossover, and controlled. Each subject attended the laboratory on three occasions. Procedures on the initial screening visit included obtaining information about the study and a number of investigations in the following order: medical history, lung function, reversibility and skin prick testing. At visit 2 and 3, separated by 2-7 days, the subjects were subjected to either an ATP or AMP challenge in a randomized fashion such that, by the end of the study, each patient had been tested with both compounds. Before, immediately after, and 30 minutes after the challenge, lung function and Borg score for dyspnoea were determined, and symptoms other than dyspnoea were recorded.\nIn the clinical study described in Examples 2-4, spirometric tests were performed using a dry spirometer (Vitalograph Ltd., Buckingham, England) and the best value of the three expiratory manoeuvers was expressed as liters and percentage of the predicted.\n(§2) For the tests described in Examples 2-4, ATP and AMP (Sigma, Gillingham, Dorset, England) were dissolved freshly in normal saline solution to produce a range of doubling concentrations from 0.227-929 umol/ml for ATP and from 0.138-1152 umol/ml for AMP and immediately used for bronchial challenge. The solutions were administered using a breath-activated dosimeter (Mefar, Bovezzo, Italy) with an output of 10 ul per inhalation [Prieto et al. (2003) Chest 123:993-997]. The subjects, while wearing a nose clip, inhaled (via a mouthpiece) five breaths of normal saline, followed by sequential doubling concentrations of either ATP or AMP from functional residual capacity to total lung capacity. FEV1 was measured from two minutes after the fifth inhalation of normal saline until there was a fall in FEV1 of ≧20% of its value recorded after saline inhalation or until maximal concentration of either ATP or AMP was inhaled. The provocative dose causing a 20% decrease in FEV1 (PD20) was calculated by interpolation of the logarithmic dose response curve.\nAll data from the analyses described in Examples 2-4 were performed with a software package (GraphPad Prism Software, Inc., USA). The significance of differences among groups was assessed by Student's t-test, and analysis of categorical variables was examined by Chi-square test. Pearson's correlation coefficient and linear regression analysis were used to analyze the relationship between the percentage decreases in FEV1 and Borg score. The PD20 values for ATP and AMP were logarithmically transformed to normalize their distribution and presented as geometric means. All other numerical variables were expressed as the mean±SEM and significance was defined as p<0.05."}, "[2]": {"system": "human subjects (cough, throat irritation, sputum)", "test": "Symptoms other than dyspnoea recorded after inhalation challenge", "details": "all subjects", "excerpt": "as §1, §2"}, "vagal C fiber": {"system": "vagal C fiber", "test": "Vagal activation experiments in dogs: action potentials in vagal C fibers", "details": "anesthetized dog, rapid bolus; simultaneous recording with RAR-containing fiber", "description": "The experiments described in Example 5 were performed essentially as described in Pelleg et al. [(1996) J. Physiol. 490(1):265-275] and U.S. Pat. No. 5,874,420, both of which are incorporated herein by reference in their entirety. In brief, they were performed on anesthetized (sodium pentobarbitone, 30 mg kg^−1 plus 3 mg kg^−1 h^−1, intravenous) dogs artificially ventilated with room air using a respirator. Arterial blood pH, PO2, PCO2, body temperature were maintained as described in U.S. Pat. No. 5,874,420. A peripheral vein was cannulated for the administration of physiological saline solution and maintenance doses of anesthetic. Catheters were introduced via the femoral vein and left atrial appendage and positioned in the right atrium and left atrium for the administration of test solutions. The chest was opened by a longitudinal sternotomy. The right cervical vagosympathetic trunk was exposed by a midcervical longitudinal section of the skin and careful dissection of neck muscles and connective tissues. The edges of the cut skin were elevated and secured to create a trough which was filled with warm (about 37° C.) mineral oil. A section of the vagosympathetic trunk was placed on a small plate of black Perspex™ and fine branches were separated from the main bundle by careful dissection using microsurgical tools and a dissecting microscope (Model F212, Jenopik Jena, GmbH, Germany).\nExtracellular neural action potentials were recorded using a custom-made bipolar electrode that contained two platinum-iridium wires (1.25 cm×0.0125 cm) connected to a high-impedence first-stage differential amplifier (model AC8331, CW, Inc., Ardmore, Pa.) via a shielded cable. The output of the first-stage amplifier was fed into a second-stage differential amplifier (model BMA-831/C, CWE, Inc.). Isolated fibers were laid on the pair of platinum-iridium wires. Vagal C fibers with chemosensitive endings have a sparse irregular discharge which is not associated with cardiac or respiratory cycles. […]\nATP (3 umole kg^−1) and capsaicin (10 ug kg^−1) were administered as a rapid bolus into the right atrium (5 ml test solution+5 ml physiological saline flush). α,βmATP and β,γmATP were given as one low dose only (0.75 umol kg^−1) to avoid systemic side effects. […] To exclude involvement of baroreceptors in the recorded neural activity, the latter was monitored before and after a bolus of nitroglycerine (1 mg; intravenous). […]"}}, "note": "Values joined by “and” are separate entries in the source; they are usually repeats but may differ in a detail not shown here. Equal entries are not always repeated."}
{"smiles": "Nc1ncnc2c1ncn2[C@@H]1O[C@H](COP(=O)(O)OP(=O)(O)OP(=O)(O)O)[C@@H](O)[C@H]1O", "note": "[ATP, adenosine 5′-triphosphate]", "values": [{"measurement": "patients with bronchoconstriction", "setting": "[1]; 19 smoking subjects (seven healthy smokers, seven smokers at risk, five COPD)", "value": 42, "unit": "%"}, {"measurement": "mean PD20", "setting": "[1]; ATP-responsive COPD patients", "value": 178.5, "unit": "µmol/mL"}, {"measurement": "PD20 geometric mean", "setting": "[1]; COPD (n = 7)", "value": 178.5, "unit": "µmol/mL"}, {"measurement": "patients who responded to challenge", "setting": "[1]; COPD patients", "value": 67, "unit": "%"}, {"measurement": "PD20 geometric mean (range)", "setting": "[1]; all subjects who had airway responsiveness", "value": "72.9 (2.9-808.7) umol/ml"}, {"measurement": "PD20 geometric mean", "setting": "[1]; asthma (n = 10)", "value": 48.7, "unit": "µmol/mL"}, {"measurement": "mean PD20", "setting": "[1]; asthma patients", "value": 48.7, "unit": "µmol/mL"}, {"measurement": "response to challenge", "setting": "[1]; healthy non-smokers, no change in FEV1 or reduction of less than 20%", "value": "negative"}, {"measurement": "control subjects who responded", "setting": "[1]; healthy smoker control subjects", "value": "three of seven"}, {"measurement": "subjects who responded to challenge", "setting": "[1]; healthy smokers", "value": 57, "unit": "%"}, {"measurement": "PD20 geometric mean", "setting": "[1]; healthy smokers (n = 7)", "value": 197.0, "unit": "µmol/mL"}, {"measurement": "PD20", "setting": "[1]; COPD (n = 7)", "value": "2.9 μmol/ml and >929 μmol/ml (2×) and 242.8 μmol/ml and 72.0 μmol/ml and 163.1 μmol/ml and 808.7 μmol/ml"}, {"measurement": "PD20", "setting": "[1]; asthma (n = 10)", "value": "44.8 µmol/mL and 23.6 µmol/mL and 20.9 µmol/mL and 67.9 µmol/mL and 92.2 µmol/mL and 160.6 µmol/mL and 18.1 µmol/mL and 28.1 µmol/mL and 137.0 µmol/mL and 49.0 µmol/mL"}, {"measurement": "PD20", "setting": "[1]; healthy smokers (n = 7)", "value": "303.4 μmol/ml and >929 μmol/ml (3×) and 70.2 μmol/ml and 442.4 μmol/ml and 159.9 μmol/ml"}, {"measurement": "PD20", "setting": "[1]; non-smokers (n = 10), provocative dose causing 20% decrease in FEV1", "value": ">929", "unit": "µmol/mL"}, {"measurement": "PD20", "setting": "[1]; smokers at risk (n = 7)", "value": ">929 μmol/ml (6×) and 52.8 μmol/ml"}, {"measurement": "PD20 geometric mean", "setting": "[1]; non-smokers (n = 10)", "value": ">929", "unit": "µmol/mL"}, {"measurement": "subjects responsive to challenge", "setting": "[1]; of the 40 subjects in the study", "value": 47.5, "unit": "%"}, {"measurement": "patients who responded to challenge", "setting": "[1]; patients with asthma", "value": 100, "unit": "%"}, {"measurement": "ΔFEV1 (decrease in FEV1 as percentage of baseline FEV1)", "setting": "[1]; patients with asthma", "value": 29, "unit": "%"}, {"measurement": "subjects who responded to challenge", "setting": "[1]; smokers at risk", "value": 14, "unit": "%"}, {"measurement": "PD20 geometric mean", "setting": "[1]; smokers at risk (n = 7)", "value": 52.8, "unit": "µmol/mL"}, {"measurement": "subjects who coughed after challenge", "setting": "[2]", "value": 90, "unit": "%"}, {"measurement": "subjects who had sputum after challenge", "setting": "[2]", "value": 28, "unit": "%"}, {"measurement": "subjects who had throat irritation after challenge", "setting": "[2]", "value": 75, "unit": "%"}, {"measurement": "effect on action potentials of C fibers", "setting": "vagal C fiber", "value": "stimulated both the C fibers and RAR-containing fibers"}]}
